Laboratory results from patent publication US20240191198A1, “CELL-CULTURED FOOD PRODUCTS AND RELATED CELLS, COMPOSITIONS, METHODS AND SYSTEMS” (BlueNalu, Inc., priority 2021, published 2024).
Entries after “also recorded” stand apart in the source; their conditions may differ.

Tests used:
dog kidney cells = experiment: Effect of nervonic acid on fatty acid toxicity (IncuCyte, CellTiter-Glo ATP assay); format: cell-based, Canis familiaris
Experimental: (§1) Concentration effects of fatty acids previously shown to be toxic to aquatic fat-derived and muscle-derived cells (Example 2, Example 5, and Example 6, respectively) were evaluated, alone and in combination with nervonic acid. EPA, DHA, stearic acid, palmitic acid and nervonic acid were tested at concentrations of 0, 10, 25, and 50 ug/mL; each concentration of EPA, DHA, stearic acid and palmitic acid was also tested in combination with 10, 25 and 50 μg/ml of nervonic acid.
(§2) Cell lines were seeded per standard passaging protocols in 4×96 well plates. The cells were allowed to proliferate to approximately 80% confluence, and then transitioned to lipid loading medium containing 0/4% FBS and appropriate lipid compositions, with 6 wells/condition. Cells were monitored for 24-48 hours to evaluate any protective effect with the addition of nervonic acid.
(§3) Cells from terrestrial cell lines were imaged in the IncuCyte for a 1-time scan to collect the images and quantify confluence using the IncuCyte software. Following imaging, cell viability was determined by a commercially available ATP assay (CellTiter-Glo 2.0, Promega) where luminescent signal is proportionate to cell number.

Bluefin tuna myoblasts = experiment: as above; format: cell-based, Thunnus orientalis
Experimental: as §1, §2
Cells from aquatic species were placed in the IncuCyte and scanned every 6 hours up to 48 hours. Once imaging was completed, cellviability was determined by a commercially available ATP assay (CellTiter-Glo 2.0, Promega) where luminescent signal is proportionate to cell number.

rabbit skin fibroblasts = experiment: as above; format: cell-based, Oryctolagus cuniculus
Experimental: as §1, §2, §3

Yellowtail myoblasts [1] = experiment: Loading of single fatty acids into yellowtail myoblasts; format: cell-based, Seriola lalandi; details: for lipid accumulation (BODIPY): individual BSA-conjugated fatty acid 25, 50, 75 or 100 μg/ml, 4% serum
Experimental: Cells were seeded onto tissue culture polystyrene at a density of 6000 cells per cm^2. Cells were cultured in the presence of control media without fatty acids or test media with individual fatty acids conjugated to BSA at 25, 50, 75, or 100 μg/ml in the presence of 4% serum. Individual fatty acids tested included saturated fatty acids, monounsaturated fatty acids, and unsaturated fatty acids as shown in Table 7 with varying carbon chain length and location of double bonds along the carbon chain. Cell morphology was observed over a six-day period by brightfield microscopy for characteristic rounding and lipid loading.

[2] = system: silver carp preadipocytes; experiment: Loading of single fatty acids into carp preadipocytes; format: cell-based, Hypophthalmichthys molitrix; details: six days; for lipid loading (brightfield, BODIPY lipid droplets): individual fatty acid 25, 50, 75 or 100 μg/ml; for toxicity (cell confluency, cell number): individual fatty acid up to 100 μg/ml
Experimental: Preadipocytes derived from freshwater carp as described in Example 1 were evaluated for the ability to uptake individual fatty acids. Cells were seeded onto tissue culture polystyrene at a density of 5-7000 cells per cm^2. Cells were cultured in the presence of control media without fatty acids or test media with individual fatty acids at 25, 50, 75, or 100 μg/ml in the absence of serum. Individual fatty acids tested included saturated fatty acids ([…]) and unsaturated fatty acids (linoleic acid). Cell morphology was observed over a six-day period by brightfield microscopy for characteristic rounding and lipid loading. As in Example 1, immunofluorescent staining of cells was performed for cell nuclei by DAPI, cell cytoskeleton by Phalloidin, and lipid droplets by BODIPY.

[3] = system: Myoblasts or fibroblasts of cow, pork, goat, lamb, or deer; experiment: Loading of fatty acid mixtures and single fatty acids into mammalian cells; format: cell-based
Experimental: Myoblasts or fibroblasts of cow, pork, goat, lamb, or deer are isolated from muscle tissue by enzymatic and mechanical/or manual dissociation. Cells are expanded in 2D tissue culture or 3D cell suspension culture.
(§4) Cells are cultured in the presence of control media without fatty acids or test media with individual fatty acids at 1, 5, 10, 15, 25, 50, 75, or 100 μg/ml in the absence or presence of reduced serum. Fatty acids are conjugated to BSA or unconjugated. Individual fatty acids include saturated fatty acids, monounsaturated fatty acids, and poly-unsaturated fatty acids with varying carbon chain lengths and location of double bonds along the carbon chains.

Yellowtail myoblasts [4] = experiment: Loading of chemically defined fatty acid combinations (Taguchi L-27) into yellowtail myoblasts: cell number, BODIPY, Mitotracker; format: cell-based, Seriola lalandi; details: fatty acids each at 0, 10, 25 or 50 μg/ml, 4% serum
Experimental: Myoblasts derived from yellowtail as described in Example 4 were evaluated for the ability to uptake fatty acids from a defined chemical composition. Cells were seeded onto tissue culture polystyrene at a density of 6000 cells per cm^2. Cells were cultured in the presence of control media without fatty acids or test media with fatty acids conjugated to BSA in the presence of 4% serum for two or six days. Concentrations were used for each individual fatty acid at 0, 10, 25, or 50 μg/ml. Combinations of fatty acids were determined using a design of experiments using a Taguchi L-27 design (Table 8). […] Cells were fixed, stained and imaged at day two or day six. Cells were treated with NucBlue, BODIPY and Mitotracker for 1.5 hours and live imaging was performed. Cells were then fixed in 4% PFA for 15 minutes and then blocked overnight at 4 degrees Celsius in blocking buffer that contained 5% goat serum, 1% BSA, and 0.2% fish gelatin in PBS. Cells were incubated with Phalloidin for 1 hour at room temperature in blocking buffer (Phalloidin 1:800). Plates were washed twice with PBS prior to imaging. JMP statistical software was used to quantify the effect of each fatty acid on cell number, fatty acid accumulation, and cell health.

[5] = system: Myoblasts or fibroblasts of chicken, duck, goose, or turkey; experiment: Loading of fatty acid mixtures and single fatty acids into cells from avian species; format: cell-based
Experimental: Myoblasts or fibroblasts of chicken, duck, goose, or turkey are isolated from muscle tissue by enzymatic and mechanical/or manual dissociation. Cells are expanded in 2D tissue culture or cell suspension culture.
as §4

[6] = toxic concentration of 50 μg/mL DHA
[7] = 1-100 μg/ml, absence or presence of reduced serum
[8] = added to the growth medium as the only fatty acid

CC/C=C\C/C=C\C/C=C\C/C=C\C/C=C\C/C=C\CCC(=O)O [DHA, docosahexaenoic acid]
toxic concentration (dog kidney cells; 24-48 hours): 50 µg/mL | toxic concentration (Bluefin tuna myoblasts; 24-48 hours): 50 µg/mL | toxic concentration (rabbit skin fibroblasts; 24-48 hours): 50 µg/mL | concentration above which toxicity occurs (Yellowtail myoblasts [1]; altered cell morphology and decreased cell number): above 25 μg/ml | toxicity (cell morphology, cell number) (Yellowtail myoblasts [1]; individual fatty acid, six days): some toxicity effects at highest concentrations tested

CCCCCCCCCCCC(=O)O [lauric acid]
lipid accumulation (BODIPY) (Yellowtail myoblasts [1]; six days): significant accumulation at all concentrations tested; also recorded: Highest lipid loading

CCCCC/C=C\C/C=C\CCCCCCCC(=O)O [linoleic acid]
lipid loading (brightfield, BODIPY lipid droplets) [2]: concentration-dependent lipid accumulation; also recorded: increased loading with concentration | lipid accumulation (BODIPY) (Yellowtail myoblasts [1]; six days): limited total loading capacity

CC/C=C\C/C=C\C/C=C\CCCCCCCC(=O)O [linolenic acid, α-linolenic acid]
lipid accumulation (BODIPY) (Yellowtail myoblasts [1]; six days): lipid accumulation that was concentration-driven; also recorded: Loading at all concentrations was observed

CCCCCCCCCCCCCC(=O)O [myristic acid]
lipid accumulation (BODIPY) (Yellowtail myoblasts [1]; six days): limited accumulation with only small areas of uptake even at the highest concentration of 100 μg/ml

CCCCCCCC/C=C\CCCCCCCCCCCCCC(=O)O [nervonic acid, (Z)-Tetracos-15-enoic acid]
increase in cell number (cell ATP) in the presence of nervonic acid (dog kidney cells; [6]): 5.5 × | lipid uptake and lipid accumulation [3, 7]: causes increased lipid uptake and lipid accumulation | cell proliferation [3, 8]: increases cell proliferation | cell number and health (Mitotracker), viability (Yellowtail myoblasts [4]): key factor in increasing lipid accumulation and cell number | lipid content / lipid accumulation (BODIPY fluorescence) (Yellowtail myoblasts [4]; two or six days): key factor in increasing lipid accumulation and cell number | increase in cell number (cell ATP) in the presence of nervonic acid (Bluefin tuna myoblasts; [6]): 70 × | lipid uptake and lipid accumulation [5, 7]: causes increased lipid uptake and lipid accumulation | cell proliferation [5, 8]: increases cell proliferation | increase in cell number (cell ATP) in the presence of nervonic acid (rabbit skin fibroblasts; [6]): 42 × | lipid accumulation (BODIPY) (Yellowtail myoblasts [1]; six days): no lipid accumulation at any concentration tested; also recorded: does not load when used individually; also recorded: No lipid loading was observed

CCCCCCCC/C=C\CCCCCCCC(=O)O [oleic acid]
lipid accumulation (BODIPY) (Yellowtail myoblasts [1]; six days): Loading at all concentrations was observed

CCCCCCCCCCCCCCCC(=O)O [palmitic acid]
lipid accumulation (BODIPY) (Yellowtail myoblasts [1]; six days): limited accumulation with only small areas of uptake even at the highest concentration of 100 μg/ml

CCCCCC/C=C\CCCCCCCC(=O)O [palmitoleic acid]
lipid loading (brightfield, BODIPY lipid droplets) [2]: concentration-dependent lipid accumulation; also recorded: a peak for palmitoleic acid is reached at a lower concentration | lipid loading (brightfield, BODIPY lipid droplets) ([2]; listed as Palmitoleic acid): effective loading at 50 μg/ml | toxicity (cell confluency, cell number) [2]: reduced cell confluency indicating potential toxicity | toxicity (cell confluency, cell number) ([2]; listed as Palmitoleic acid): reduced cell number; also recorded: Some concentration-related toxicity | concentration above which toxicity occurs [2]: above 50 μg/ml | lipid accumulation (BODIPY) (Yellowtail myoblasts [1]; six days): Loading at all concentrations was observed

CCCCCCCCCCCCCCCCCC(=O)O [stearic acid]
lipid accumulation (BODIPY) (Yellowtail myoblasts [1]; six days): limited accumulation with only small areas of uptake even at the highest concentration of 100 μg/ml

CCCCCC/C=C\CCCCCCCCCC(=O)O [vaccenic acid, (11Z)-11-octadecenoic acid]
lipid accumulation (BODIPY) (Yellowtail myoblasts [1]; six days): Loading at all concentrations was observed | lipid accumulation (BODIPY) (Yellowtail myoblasts [1]; six days, listed as Cis-vaccenic acid): taken up very readily
